In brackets after ≈: the same amount, converted by molar mass. Read-outs that look alike come from different tables or passages of the source.
What was measured:
[1] = test system: Str. pneumoniae A-9585; assay: MIC, tube dilution, Streptococcus pneumoniae A9585; assay type: cell-based; conditions: overnight 37° C., Nutrient Broth
Excerpt: (§1) Representative compounds of the present invention were subjected to in vitro antibiotic screening against a variety of microorganisms.

[2] = test system: Str. pyogenes A-9604; assay: MIC, tube dilution, Streptococcus pyogenes A9604; assay type: cell-based; conditions: overnight 37° C., Nutrient Broth; for MIC: Streptococcus pyogenes, A9604, Str. pyogenes A9604, read-out: Minimum Inhibitory Concentration (M.I.C.)
Excerpt: as §1

[3] = test system: Staph. aureus A-9537; assay: MIC, tube dilution, Staphylococcus aureus A9537; assay type: cell-based; conditions: overnight 37° C., Nutrient Broth; for MIC: Staphylococcus aureus, A9537, Staph. aureus A9537, read-out: Minimum Inhibitory Concentration (M.I.C.)
Excerpt: as §1

[4] = test system: Staph. aureus A-9537 and 50% serum; assay: MIC, tube dilution, Staph. aureus A9537 + 50% serum; assay type: cell-based, Staphylococcus aureus; conditions: overnight 37° C.; for MIC: Staphylococcus aureus, read-out: Minimum Inhibitory Concentration (M.I.C.)
Excerpt: as §1

[5] = test system: Staph. aureus (Pen-Res) A-9606; assay: MIC, tube dilution, Staphylococcus aureus A9606 (Pen-Res); assay type: cell-based; conditions: Staph. aureus A9606 (Pen-Res), overnight 37° C.; for MIC: Staphylococcus aureus, read-out: Minimum Inhibitory Concentration (M.I.C.)
Excerpt: as §1

[6] = test system: Staph. aureus (Meth-Res) A-15097; assay: MIC, tube dilution, Staphylococcus aureus A15097 (Meth-Res); assay type: cell-based; conditions: Staph. aureus A15097 (Meth-Res), overnight 37° C.
Excerpt: as §1

[7] = test system: Str. faecalis A-20688; assay: MIC, tube dilution, Streptococcus faecalis A20688; assay type: cell-based; conditions: overnight 37° C.; for MIC: Enterococcus faecalis, A20688, Str. faecalis A20688, read-out: Minimum Inhibitory Concentration (M.I.C.)
Excerpt: as §1

[8] = test system: E. coli A-15119; assay: MIC, tube dilution, Escherichia coli A15119; assay type: cell-based; conditions: overnight 37° C.
Excerpt: as §1

[9] = test system: E. coli A-20341-1; assay: MIC, tube dilution, Escherichia coli A20341-1; assay type: cell-based
Excerpt: as §1

[10] = test system: K. pneumoniae A-15130; assay: MIC, tube dilution, Klebsiella pneumoniae A15130; assay type: cell-based; conditions: overnight 37° C.
Excerpt: as §1

[11] = test system: Klebsiella species A20468; assay: MIC, tube dilution, Klebsiella species A20468; assay type: cell-based; conditions: Klebsiella species (K. pneumoniae) A20468, overnight 37° C.; for MIC: read-out: Minimum Inhibitory Concentration (M.I.C.)
Excerpt: as §1

[12] = test system: Pr. mirabilis A-9900; assay: MIC, tube dilution, Proteus mirabilis A9900; assay type: cell-based; conditions: Proteus mirabilis, A9900, Proteus mirabilis A9900; overnight 37° C.; read-out: Minimum Inhibitory Concentration (M.I.C.)
Excerpt: as §1

[13] = test system: Pr. morganii A-15153; assay: MIC, tube dilution, Proteus morganii A15153; assay type: cell-based; conditions: Morganella morganii, A15153, Proteus morganii A15153; overnight 37° C.; read-out: Minimum Inhibitory Concentration (M.I.C.)
Excerpt: as §1

[14] = test system: Ser. marcescens A-20019; assay: MIC, tube dilution, Serratia marcescens A20019; assay type: cell-based; conditions: Serratia marcescens, A20019, Serratia marcescens A20019; overnight 37° C.; read-out: Minimum Inhibitory Concentration (M.I.C.)
Excerpt: as §1

[15] = test system: Ent. cloacae A-9659; assay: MIC, tube dilution, Enterobacter cloacae A9659; assay type: cell-based; conditions: overnight 37° C.
Excerpt: as §1

[16] = test system: Ent. cloacae A-9656; assay: MIC, tube dilution, Enterobacter cloacae A9656; assay type: cell-based; conditions: overnight 37° C.; for MIC: read-out: Minimum Inhibitory Concentration (M.I.C.)
Excerpt: as §1

[17] = test system: Ps. aeruginosa A-9843A; assay: MIC, tube dilution, Pseudomonas aeruginosa A9843A; assay type: cell-based; conditions: overnight 37° C.
Excerpt: as §1

[18] = test system: Ps. aeruginosa A-21213; assay: MIC, tube dilution, Pseudomonas aeruginosa A21213; assay type: cell-based; conditions: overnight 37° C., read-out: Minimum Inhibitory Concentration (M.I.C.)
Excerpt: as §1

[19] = test system: Proteus rettgeri A21203; assay: MIC, tube dilution, Proteus rettgeri A21203; assay type: cell-based; conditions: Providencia rettgeri, A21203, Proteus rettgeri A21203; overnight 37° C.; read-out: Minimum Inhibitory Concentration (M.I.C.)
Excerpt: as §1

[20] = test system: Proteus vulgaris A21559; assay: MIC, tube dilution, Proteus vulgaris A21559; assay type: cell-based; conditions: Proteus vulgaris, A21559, Proteus vulgaris A21559; overnight 37° C.; read-out: Minimum Inhibitory Concentration (M.I.C.)
Excerpt: as §1

[21] = test system: S. aureus A9537; assay: In vivo protection of mice, lethal infection with S. aureus A9537; conditions: Staphylococcus aureus, A9537, im, IM, 2 treatments, 1 × 10^6 organisms; read-out: PD50
Protocol: Representative compounds of the present invention were also tested in vivo in mice and their PD50 (dose of compound in mg/kg required to protect 50% of the treated mice against an otherwise lethal infection of a micro-organism) values determined with respect to the test organisms shown below.

[22] = Mouse blood levels after intramuscular administration; assay type: in vivo; conditions: average of 6 mice, read-out: Mouse blood level
Protocol: Mouse blood levels after intramuscular administration of representative compounds of the present invention were determined and are reported in the table below.

[23] = test system: Providencia stuartii A21205; assay: MIC, tube dilution, Providencia stuartii (Pr. rettgeri) A21205; assay type: cell-based; conditions: Providencia stuartii
Excerpt: as §1

[24] = Escherichia coli, A203411, E. coli A20341-1; overnight 37° C.; read-out: Minimum Inhibitory Concentration (M.I.C.)
[25] = Escherichia coli, A203411; E. coli A20341-1; overnight 37° C.; read-out: Minimum Inhibitory Concentration (M.I.C.)

With `NCCCCCC1=C(C(=O)O)N2C(=O)C[C@H]2S1` [Example 87, 2-(5-Aminopentyl)-penem-3-carboxylic acid] the MIC ([1]; Streptococcus pneumoniae, A9585, Str. pneumoniae A9585, read-out: Minimum Inhibitory Concentration (M.I.C.)) was 0.008 µg/mL (≈ 0.0312 µM), the MIC [2] was 0.008 µg/mL (≈ 0.0312 µM) and the MIC [3] was 0.016 µg/mL (≈ 0.0624 µM). The MIC [4] was 0.13 µg/mL, the MIC [5] was 4 µg/mL (≈ 15.6 µM) and the “Minimum Inhibitory Concentration (M.I.C.)” value [6] was 32 µg/mL. For the same compound, the MIC [7] was 8 µg/mL (≈ 31.2 µM), the “Minimum Inhibitory Concentration (M.I.C.)” value ([8]; E. coli A15119) was 4 µg/mL and the MIC [9, 24] was 16 µg/mL (≈ 62.4 µM). For the same compound, the “Minimum Inhibitory Concentration (M.I.C.)” value ([10]; K. pneumoniae A15130) was 8 µg/mL, the MIC [11] was > 125 µg/mL and the MIC [12] was 4 µg/mL (≈ 15.6 µM). The MIC [13] was 4 µg/mL (≈ 15.6 µM), the MIC [14] was 2 µg/mL (≈ 7.8 µM) and the “Minimum Inhibitory Concentration (M.I.C.)” value ([15]; Enterobacter cloacae A9659) was 16 µg/mL. For the same compound, the “Minimum Inhibitory Concentration (M.I.C.)” value ([16]; Enterobacter cloacae A9656) was 8 µg/mL, the “Minimum Inhibitory Concentration (M.I.C.)” value ([17]; Pseudomonas aeruginosa A9843A) was 32 µg/mL and the MIC ([18]; Pseudomonas aeruginosa, A21213, Pseudomonas aeruginosa A21213) was > 125 µg/mL. It also gave an MIC [19] of 4 µg/mL (≈ 15.6 µM), an MIC [20] of 16 µg/mL (≈ 62.4 µM) and an ED50 [21] of 0.12 mg/kg. It also gave a concentration at 10 min ([22]; 10 minutes after IM 40 mg/kg) of 50300 ng/mL, a concentration at 20 min ([22]; 20 minutes after IM 40 mg/kg) of 47300 ng/mL and a concentration at 0.5 h ([22]; 30 minutes after IM 40 mg/kg) of 34600 ng/mL. The concentration at 0.75 h ([22]; 45 minutes after IM 40 mg/kg) was 23300 ng/mL.

With `CC1=C(C(=O)O)N2C(=O)C[C@H]2S1` [Preparation 4(-), (-)-2-Methylpenem-3-carboxylic Acid] the “Minimum Inhibitory Concentration (M.I.C.)” value ([1]; Str. pneumoniae A9585) was 8 µg/mL, the “Minimum Inhibitory Concentration (M.I.C.)” value ([2]; Str. pyogenes A9604) was 8 µg/mL and the “Minimum Inhibitory Concentration (M.I.C.)” value ([3]; Staph. aureus A9537) was 32 µg/mL. The “Minimum Inhibitory Concentration (M.I.C.)” value [4] was > 63 µg/mL, the MIC [9, 25] was > 125 µg/mL and the “Minimum Inhibitory Concentration (M.I.C.)” value [11] was > 125 µg/mL. The MIC ([23]; A21205, read-out: Minimum Inhibitory Concentration (M.I.C.)) was > 125 µg/mL and the MIC ([16]; Enterobacter cloacae A9656) was > 125 µg/mL.

`CSCC1=C(C(=O)O)N2C(=O)C[C@H]2S1` [Preparation 9, 2-Methylthiomethylpenem-3-carboxylic Acid] showed an MIC [2] of 0.25 µg/mL (≈ 1.08 µM), an MIC [3] of 0.5 µg/mL (≈ 2.16 µM) and an MIC [4] of 63 µg/mL. For the same compound, the “Minimum Inhibitory Concentration (M.I.C.)” value [5] was 4 µg/mL, the MIC [5] was 8 µg/mL (≈ 34.6 µM) and the “Minimum Inhibitory Concentration (M.I.C.)” value [6] was 8 µg/mL. For the same compound, the MIC ([6]; Staphylococcus aureus, read-out: Minimum Inhibitory Concentration (M.I.C.)) was 16 µg/mL (≈ 69.2 µM), the MIC [7] was 63 µg/mL (≈ 272 µM) and the “Minimum Inhibitory Concentration (M.I.C.)” value ([7]; Str. faecalis A20688) was 32 µg/mL. The MIC ([8]; Escherichia coli, A15119, E. coli A15119, read-out: Minimum Inhibitory Concentration (M.I.C.)) was 1 µg/mL (≈ 4.32 µM), the MIC [9, 24] was 63 µg/mL (≈ 272 µM) and the MIC [9, 25] was > 125 µg/mL. For the same compound, the MIC ([10]; Klebsiella pneumoniae, A15130, K. pneumoniae A15130, read-out: Minimum Inhibitory Concentration (M.I.C.)) was 16 µg/mL (≈ 69.2 µM), the MIC [11] was > 125 µg/mL and the MIC [12] was 1 µg/mL (≈ 4.32 µM). For the same compound, the MIC [13] was 4 µg/mL (≈ 17.3 µM), the MIC ([23]; A21205, Providencia stuartii (Pr. rettgeri) A21205, overnight 37° C., read-out: Minimum Inhibitory Concentration (M.I.C.)) was 2 µg/mL (≈ 8.65 µM) and the MIC [14] was 4 µg/mL (≈ 17.3 µM). For the same compound, the MIC ([15]; Enterobacter cloacae, A9659, Enterobacter cloacae A9659, read-out: Minimum Inhibitory Concentration (M.I.C.)) was 4 µg/mL (≈ 17.3 µM), the “Minimum Inhibitory Concentration (M.I.C.)” value ([16]; Enterobacter cloacae A9656) was 8 µg/mL and the MIC ([16]; Enterobacter cloacae, A9656, Enterobacter cloacae A9656) was 16 µg/mL (≈ 69.2 µM). For the same compound, the MIC ([17]; Pseudomonas aeruginosa, A9843A, read-out: Minimum Inhibitory Concentration (M.I.C.), Pseudomonas aeruginosa A9843A) was > 125 µg/mL and the MIC ([18]; Pseudomonas aeruginosa A21213) was > 125 µg/mL.
